Laboratory results: patent US20240271138A1, “METHODS AND COMPOSITIONS FOR MODULATING STING SIGNALING AND INNATE IMMUNE RESPONSES” (The Broad Institute, Inc., priority 2021, published 2024)

Legend:
human STING = human STING (Homo sapiens, UniProt Q86WV6); details: cited from earlier work
type 1 IFN expression = details: cited from earlier work
T-cells = details: cited from earlier work
[1] = system: STING LBD fusion proteins (PH-S139, 2XFYVE-S139); test: mNG fluorescence and immunoblots of organelle-targeted STING LBD fusion proteins; type: cell-based, human; details: nigericin stimulation
Excerpt: Upper, concentrated STING is able to mediate TBK1 for trans-phosphorylation. Lower, diluted STING is unable to mediate TBK1's transphosphorylation.

STING-HA = STING-HA degradation in 293T stably expressing STING-HA, HA intracellular staining; type: cell-based, human; details: 293T STING-HA; cGAMP 6 hours; pre-treatment with U18666A; FIGS. 11G-11H
Excerpt: FIGS. 11A-11H show interaction of ESCRT components with STING. FIGS. 11A-11D show immunofluorescence of CD63, HGS, and STING (FIG. 11A); p62, HGS, and STING (FIG. 11B); LC3B, HGS, and STING (FIG. 11C); p62, CD63, and STING (FIG. 11D) in 293T stably expressing STING-HA and non-stimulated, relative to FIGS. 4A-4D. […] Dashed box represents the cropped region enlarged in the right panel for the +cGAMP condition. Scale bar is 10 μm. One representative field of n≥3 independent fields in n=3 independent experiments. […] One representative experiment of n=3 independent experiments with n=2 technical replicates per experiment. […] Each dot represents an individual replicate **** p<0.0001.
Data was analyzed with FlowJo (BD).

STING = test: Immunoblots of U937 and STING-HA 293T cells treated with VPS34-IN1 and cGAMP; type: cell-based, human; details: 1 μM VPS34-IN1
Excerpt: (§1) FIGS. 22A-22F show endosome localization and J domain activity are essential for DNAJC13's function on STING.

DNAJC13 = test: Immunofluorescence of DNAJC13 in 293T cells; type: cell-based, human; details: 1 μm VPS34-IN1, FIG. 22B
Excerpt: as §1

[2] = sgCTRL cells, cGAMP stimulation, FIGS. 22D-22E

human STING, sequence (Q86WV6 whole entry H232R): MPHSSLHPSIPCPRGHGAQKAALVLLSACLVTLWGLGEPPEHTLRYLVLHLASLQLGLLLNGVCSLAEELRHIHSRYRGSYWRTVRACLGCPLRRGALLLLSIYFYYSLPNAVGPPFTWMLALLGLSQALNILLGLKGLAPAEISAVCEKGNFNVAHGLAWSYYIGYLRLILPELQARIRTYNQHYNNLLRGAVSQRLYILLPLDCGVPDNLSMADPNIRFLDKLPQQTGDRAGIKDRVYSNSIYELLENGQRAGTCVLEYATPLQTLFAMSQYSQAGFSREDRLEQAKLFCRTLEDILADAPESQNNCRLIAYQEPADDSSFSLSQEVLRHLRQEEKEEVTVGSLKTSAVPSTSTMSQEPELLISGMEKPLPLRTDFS

Compound: Cc1ccc2c(=O)c3cccc(CC(=O)O)c3oc2c1C [DMXAA, 6-dimethylxanthenone-4-acetic acid]
- binding to human STING versus murine STING (human STING): substantially weaker binding to human STING in comparison to murine STING
- type 1 IFN expression (type 1 IFN expression): induces type 1 IFN expression
- apoptosis in T-cells (T-cells): elicits stress pathways that induce apoptosis in T-cells

Compound: CO[C@@H]1C[C@@H](C[C@H]2CC[C@H](C)[C@H]([C@@H](C)C(=O)O)O2)O[C@]2(O[C@](C)([C@H]3CC[C@@](C)([C@@H]4O[C@@H]([C@H]5O[C@@](O)(CO)[C@H](C)C[C@@H]5C)C[C@@H]4C)O3)C[C@H]2C)[C@@H]1C [Nigericin]
- PH-S139 localization ([1]; FIG. 17E): PH-S139 localization change was observed to dispersed vesicles
- STING activation (phosphorylation) of fusion proteins ([1]; FIG. 17F): STING activation was observed in PH-S139 and 2XFYVE-S139 but not with mitochondria localized TomS33-S139 or WT STING

Compound: CCN(CC)CCO[C@H]1CC[C@@]2(C)C(=CC[C@@H]3[C@@H]2CC[C@]2(C)C(=O)CC[C@@H]32)C1 [U18666A]
- STING degradation (STING-HA MFI) (STING-HA): marked reduction in STING degradation

Compound: CC(C)(O)CNc1ncc(-c2ccnc(Nc3ccnc(Cl)c3)n2)c(CC2CC2)n1 [VPS34-IN1]
- STING induced autophagy (STING; STING-HA 293T, digitonin and cGAMP, FIG. 22E): greatly enhanced
- STING degradation (STING; [2]): enhancement of STING degradation
- STING phosphorylation (STING; [2]): strong boost of STING phosphorylation
- DNAJC13 endosomal localization (DNAJC13): clear diffusion of DNAJC13 from the endosome

Compound: cyclic GMP-AMP [cGAMP]
- T-cell proliferation and T-cell death (T-cells; exogenous cGAMP): impairs T-cell proliferation and can cause T-cell death
